Test results from publication PMC11190964 (Journal of medicinal chemistry, 2023).

Experiments:
PIKFYVE = PIKFYVE (Homo sapiens, UniProt Q9Y2I7); assay: PIKFYVE NanoBRET target engagement assay; format: cell-based; details: transfected HEK293T cells, 3 h
MDA-MB-231 cells = assay: Vacuole formation; format: cell-based
JNK2 [1] = target: T1, JNK2 (Homo sapiens, UniProt P45984); assay: Mass labeling of recombinant JNK2 protein; format: binding; details: room temperature, 60 min incubation; trypsin digest, CE-MS/MS
Target sequence in this assay (P45984 4-364): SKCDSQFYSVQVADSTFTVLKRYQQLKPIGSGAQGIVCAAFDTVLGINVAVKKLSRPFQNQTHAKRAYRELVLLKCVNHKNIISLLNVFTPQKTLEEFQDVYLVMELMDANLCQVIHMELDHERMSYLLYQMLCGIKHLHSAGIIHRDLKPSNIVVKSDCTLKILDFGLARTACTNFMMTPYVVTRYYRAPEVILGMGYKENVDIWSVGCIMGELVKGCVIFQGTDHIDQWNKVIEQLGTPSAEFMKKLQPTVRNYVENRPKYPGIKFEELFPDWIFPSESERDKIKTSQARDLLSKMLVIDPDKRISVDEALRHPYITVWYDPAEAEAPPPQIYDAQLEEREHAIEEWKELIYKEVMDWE

JNK2 [2] = target: T1, JNK2; assay: PhosphoSens kinetic assay; format: biochemical; details: JNK1 and JNK2
Target sequence in this assay (P45984 whole entry): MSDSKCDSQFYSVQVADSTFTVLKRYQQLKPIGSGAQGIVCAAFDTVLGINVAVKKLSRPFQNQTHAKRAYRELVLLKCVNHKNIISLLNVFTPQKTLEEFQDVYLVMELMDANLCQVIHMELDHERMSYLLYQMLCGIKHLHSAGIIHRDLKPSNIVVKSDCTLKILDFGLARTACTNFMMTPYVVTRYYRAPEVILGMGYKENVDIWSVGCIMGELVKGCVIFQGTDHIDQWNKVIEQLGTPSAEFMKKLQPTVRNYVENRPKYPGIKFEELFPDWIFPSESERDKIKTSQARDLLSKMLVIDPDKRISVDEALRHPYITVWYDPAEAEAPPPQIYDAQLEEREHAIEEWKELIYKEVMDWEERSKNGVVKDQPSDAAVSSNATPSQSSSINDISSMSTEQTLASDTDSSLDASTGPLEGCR

MM.1S cells [3] = assay: Apoptosis; format: cell-based; details: PARP cleavage, caspase 3 cleavage, Annexin V/PI staining
JNK2 [4] = target: T1, JNK2; assay: Pull-down competition assay with biotin-JNK-IN-7, JNK2; format: cell-based; details: MM.1S cells, 6 h; both JNK1 and JNK2
Target sequence in this assay (P45984 whole entry): as above

[5] = tested on: Bortezomib-resistant ANBL6 cells; assay: Antiproliferative assay, Bortezomib-resistant ANBL6; format: cell-based; details: parental ANBL6 and Bortezomib-resistant ANBL6 cells
MM.1S cells [6] = assay: Proliferation / growth rate inhibition assay; format: cell-based; details: for antiproliferative activity / toxicity, single agent: comparator inhibitors, single-agent treatment
JNK1 = JNK1 (Homo sapiens, UniProt P45983); assay: JNK1 NanoBRET target engagement assay; format: cell-based; details: HEK293T cells; compared with JNK-IN-8
[7] = tested on: HAP1 parental cells and JNK2-knockout cell lines; assay: Antiproliferative activity in HAP1 parental and JNK2-knockout cells; format: cell-based
[8] = tested on: panel of more than 400 kinases; assay: Kinome-wide selectivity panel; details: strong binding to EGFR, CK1, DDR1, CDK7, Aurora A and B
JNK2 [9] = target: T1, JNK2; assay: Z′-Lyte fixed time point kinase assay, JNK2; details: fixed time point biochemical kinase assay
Target sequence in this assay (P45984 whole entry): as above

Sequence of PIKFYVE (Q9Y2I7 whole entry): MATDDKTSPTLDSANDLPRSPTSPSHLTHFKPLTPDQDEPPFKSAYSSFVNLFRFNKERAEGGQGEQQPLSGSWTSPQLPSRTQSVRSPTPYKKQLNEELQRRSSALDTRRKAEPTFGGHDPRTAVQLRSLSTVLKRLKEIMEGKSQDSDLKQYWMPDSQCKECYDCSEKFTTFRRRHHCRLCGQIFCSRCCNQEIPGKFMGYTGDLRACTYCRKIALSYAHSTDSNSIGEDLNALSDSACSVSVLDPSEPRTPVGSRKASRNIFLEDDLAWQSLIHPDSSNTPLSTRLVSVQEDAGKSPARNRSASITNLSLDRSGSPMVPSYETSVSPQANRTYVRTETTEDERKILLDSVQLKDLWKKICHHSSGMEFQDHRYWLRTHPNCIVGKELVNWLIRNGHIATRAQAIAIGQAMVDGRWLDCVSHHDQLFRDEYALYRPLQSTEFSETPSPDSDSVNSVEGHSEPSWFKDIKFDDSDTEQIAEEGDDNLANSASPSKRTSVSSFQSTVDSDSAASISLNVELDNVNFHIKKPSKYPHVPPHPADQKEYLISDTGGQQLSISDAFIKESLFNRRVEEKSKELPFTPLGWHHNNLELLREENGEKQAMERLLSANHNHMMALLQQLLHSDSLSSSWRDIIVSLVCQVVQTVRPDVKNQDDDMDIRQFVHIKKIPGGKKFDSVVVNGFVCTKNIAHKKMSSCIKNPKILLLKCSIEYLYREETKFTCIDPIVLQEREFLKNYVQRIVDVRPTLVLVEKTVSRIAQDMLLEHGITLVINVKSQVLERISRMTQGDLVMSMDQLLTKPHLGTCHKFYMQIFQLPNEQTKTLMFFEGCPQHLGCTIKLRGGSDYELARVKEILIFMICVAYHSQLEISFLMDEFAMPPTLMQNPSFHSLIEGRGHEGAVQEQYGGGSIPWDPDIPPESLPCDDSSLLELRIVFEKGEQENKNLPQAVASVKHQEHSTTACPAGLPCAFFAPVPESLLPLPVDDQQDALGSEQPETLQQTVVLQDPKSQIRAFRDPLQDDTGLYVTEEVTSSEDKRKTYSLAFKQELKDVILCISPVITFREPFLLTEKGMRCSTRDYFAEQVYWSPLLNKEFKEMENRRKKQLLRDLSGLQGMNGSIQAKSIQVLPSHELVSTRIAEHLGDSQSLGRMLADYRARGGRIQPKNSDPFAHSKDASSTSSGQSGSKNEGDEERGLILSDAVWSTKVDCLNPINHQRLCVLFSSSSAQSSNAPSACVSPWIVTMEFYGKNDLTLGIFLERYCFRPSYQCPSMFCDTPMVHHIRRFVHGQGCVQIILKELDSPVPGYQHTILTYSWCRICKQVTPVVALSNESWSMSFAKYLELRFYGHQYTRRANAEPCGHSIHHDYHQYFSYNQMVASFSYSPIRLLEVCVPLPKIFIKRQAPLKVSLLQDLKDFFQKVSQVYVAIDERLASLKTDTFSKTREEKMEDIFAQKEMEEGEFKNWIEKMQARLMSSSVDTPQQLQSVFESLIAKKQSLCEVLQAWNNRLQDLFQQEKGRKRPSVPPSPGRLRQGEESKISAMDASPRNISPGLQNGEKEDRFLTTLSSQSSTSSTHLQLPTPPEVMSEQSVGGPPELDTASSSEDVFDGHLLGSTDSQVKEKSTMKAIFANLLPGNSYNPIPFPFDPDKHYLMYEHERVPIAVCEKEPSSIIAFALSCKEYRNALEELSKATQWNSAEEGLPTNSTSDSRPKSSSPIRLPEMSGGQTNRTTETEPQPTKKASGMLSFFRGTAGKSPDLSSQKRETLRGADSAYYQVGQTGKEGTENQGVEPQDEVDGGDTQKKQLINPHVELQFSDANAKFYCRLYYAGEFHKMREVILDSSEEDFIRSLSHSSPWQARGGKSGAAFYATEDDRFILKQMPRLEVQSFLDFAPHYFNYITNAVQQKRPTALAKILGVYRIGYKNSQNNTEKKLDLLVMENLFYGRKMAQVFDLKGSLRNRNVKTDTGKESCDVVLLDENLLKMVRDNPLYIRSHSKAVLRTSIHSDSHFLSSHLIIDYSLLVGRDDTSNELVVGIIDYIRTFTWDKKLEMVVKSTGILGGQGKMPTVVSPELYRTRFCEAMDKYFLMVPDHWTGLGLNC
Sequence of JNK1 (P45983 whole entry): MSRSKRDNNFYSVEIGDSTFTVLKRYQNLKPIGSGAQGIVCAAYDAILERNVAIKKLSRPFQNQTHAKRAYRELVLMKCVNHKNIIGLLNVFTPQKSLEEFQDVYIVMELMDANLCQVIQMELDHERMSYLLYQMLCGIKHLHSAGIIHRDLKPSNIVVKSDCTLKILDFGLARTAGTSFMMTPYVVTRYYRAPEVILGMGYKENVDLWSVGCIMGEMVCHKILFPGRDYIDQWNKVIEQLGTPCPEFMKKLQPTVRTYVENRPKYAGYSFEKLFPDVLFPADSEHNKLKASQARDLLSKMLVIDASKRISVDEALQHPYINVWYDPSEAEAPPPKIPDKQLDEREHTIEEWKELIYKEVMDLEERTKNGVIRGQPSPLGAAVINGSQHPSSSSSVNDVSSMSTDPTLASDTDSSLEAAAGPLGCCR

**Q.** With CN(C)C/C=C/C(=O)Nc1ccc(C(=O)N2CC[C@H](Nc3nccc(-c4c(-c5ccccc5)nn5ccccc45)n3)C2)cc1 [YL2056, (S,E)-4-(Dimethylamino)-N-[4-(3-{[4-(2-phenylpyrazolo[1,5-a]pyridin-3-yl)pyrimidin-2-yl]amino}pyrrolidine-1-carbonyl)phenyl]but-2-enamide] as the molecule, how does the “PIKFYVE binding in NanoBRET” value (PIKFYVE) read?
**A.** binds to PIKFYVE more strongly than its reversible counterpart

**Q.** What about the “vacuole formation” value (MDA-MB-231 cells; MDA-MB-231, phenotype of PIKFYVE inhibition) of the same molecule?
**A.** induced

**Q.** What about the “covalent modification site on JNK2” value (JNK2 [1]) of the same molecule?
**A.** exclusive modification on JNK2 Cys116

**Q.** What does the source list for Cc1cc(NC(=O)c2cccc(NC(=O)/C=C/CN(C)C)c2)ccc1Nc1nccc(-c2cccnc2)n1 [JNK-IN-8]?
**A.** potency JNK2 versus JNK1 in kinetic assay (JNK2 [2]): almost equipotent against both; induction of apoptosis (MM.1S cells [3]): failed to induce apoptotic cell death to the same level; engagement of JNK1 and JNK2 in pull down (JNK2 [4]): engaged both JNK1 and JNK2 at the same concentration; antiproliferative effect in ANBL6 cells [5]: minimal effect

**Q.** Which “antiproliferative activity / toxicity, single agent” value (MM.1S cells [6]) does the source give for O=c1ncn2nc(Sc3ccc(F)cc3F)ccc2c1-c1c(Cl)cccc1Cl [VX745] here?
**A.** not toxic

**Q.** Which results are given for C[C@H]1CN(C(=O)c2ccc(NC(=O)/C=C/CN(C)C)cc2)C[C@H]1Nc1nccc(-c2c(-c3ccccc3)nn3ccccc23)n1 [YL5084, (E)-4-(Dimethylamino)-N-[4-((3S,4S)-3-methyl-4-{[4-(2-phenylpyrazolo[1,5-a]pyridin-3-yl)pyrimidin-2-yl]amino}pyrrolidine-1-carbonyl)phenyl]but-2-enamide]?
**A.** JNK1 engagement in NanoBRET (JNK1): significantly less engagement of JNK1; vacuole formation (MDA-MB-231 cells; up to a concentration of 4 μM): did not induce vacuole formation; GR50 (antiproliferative) (MM.1S cells [6]; multiple myeloma (MM) cell lines, 72 h): 200 to 300 nM; induction of apoptosis (MM.1S cells [3]): induced apoptosis; antiproliferative activity, parental vs JNK2-knockout [7]: equipotent antiproliferative activity

**Q.** How did the “fold weaker antiproliferative activity than YL5084” value (MM.1S cells [6]; multiple myeloma (MM) cell lines, GR50) turn out when C[C@H]1CN(C(=O)c2ccc(NC(=O)CCCN(C)C)cc2)C[C@H]1Nc1nccc(-c2c(-c3ccccc3)nn3ccccc23)n1 [YL5084R, 4-(Dimethylamino)-N-[4-((3S,4S)-3-methyl-4-{[4-(2-phenylpyrazolo[1,5-a]pyridin-3-yl)pyrimidin-2-yl]amino}pyrrolidine-1-carbonyl)phenyl]butanamide] was run?
**A.** 15 fold

**Q.** Which results are given for CN(C)C/C=C/C(=O)Nc1ccc(C(=O)Nc2cccc(Nc3nccc(-c4c(-c5ccccc5)nn5ccccc45)n3)c2)cc1 [THZ-3–60-1]?
**A.** kinome-wide selectivity [8]: poor kinome-wide selectivity; selectivity JNK2 versus JNK1 (JNK2 [9]): exhibited selectivity for JNK2 versus JNK1

**Q.** For O[C@H]1CC[C@H](Nc2ncc3nc(Nc4c(F)cc(F)cc4F)n([C@H]4CCOC4)c3n2)CC1 [CC930], which “protection from YL5084-mediated cell killing” value (MM.1S cells [6]; 10 μM pretreatment, MM.1S cells) is on record?
**A.** did not protect

**Q.** And the “antiproliferative activity / toxicity, single agent” value (MM.1S cells [6])?
**A.** did not exhibit antiproliferative activity even at micromolar concentrations
